Results reported in the NIST ThermoML archive (doi:10.1021/je3002305).
± gives the expanded uncertainty stated by the source.

Assay: refractive index (Na D-line) (dimensionless)
Conditions: 293.1 K; 101.33 kPa; Liquid; Standard Abbe refractometry

| SMILES | refractive index |
| --- | --- |
| CCCCCCCCCCCC [dodecane] | 1.4221 ± 0.0008 |
| CCCCn1cc[n+](C)c1.F[P-](F)(F)(F)(F)F [1-butyl-3-methylimidazolium hexafluorophosphate] | 1.4101 ± 0.0008 |
| CCCCCCn1cc[n+](C)c1.F[P-](F)(F)(F)(F)F [1-hexyl-3-methylimidazolium hexafluorophosphate] | 1.4176 ± 0.0008 |
| CCCCCCCC[n+]1ccn(C)c1.F[P-](F)(F)(F)(F)F [1-octyl-3-methylimidazolium hexafluorophosphate] | 1.4231 ± 0.0008 |
| CCCCc1ccccc1 [butylbenzene] | 1.4894 ± 0.0008 |
